# Measured values: patent US12043632B2, “6-heteroaryloxy benzimidazoles and azabenzimidazoles as JAK2 inhibitors” (Ajax Therapeutics, Inc., priority 2020, dated 2024)
# Biological target: T1, JAK2 (JH1domain-catalytic, Y1007F,Y1008F) kinase (Homo sapiens, UniProt O60674, Y1007F/Y1008F)
# T1 construct: JAK2 (JH1domain-catalytic, Y1007F,Y1008F) kinase was expressed as N-terminal fusion; made in house; host or cells: transiently transfected HEK293 cells
# Test: JAK2 JH1 Domain Binding Assay
# Settings: qPCR readout
# T1 sequence (O60674 849-1124 Y1007F/Y1008F limits assumed): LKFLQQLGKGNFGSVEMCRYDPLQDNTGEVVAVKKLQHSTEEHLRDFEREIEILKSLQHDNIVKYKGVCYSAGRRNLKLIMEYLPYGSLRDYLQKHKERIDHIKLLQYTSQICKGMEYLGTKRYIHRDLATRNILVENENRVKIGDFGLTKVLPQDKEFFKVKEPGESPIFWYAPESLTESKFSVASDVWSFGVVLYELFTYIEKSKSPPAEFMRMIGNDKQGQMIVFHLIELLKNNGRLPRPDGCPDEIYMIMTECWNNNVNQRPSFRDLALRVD
row,Kd [nM],Structure (SMILES)
1,< 10,"CCc1cc(Nc2nc3ncc(Oc4cnn5ccncc45)c(Cl)c3n2C)cc(C(=O)N2CCC2)n1 [Example I-188, Azetidin-1-yl(4-((7-chloro-1-methyl-6-(pyrazolo[1,5-a]pyrazin-3-yloxy)-1H-imidazo[4,5-b]pyridin-2-yl)amino)-6-ethylpyridin-2-yl)methanone]"
2,< 10,"Cn1c(Nc2cc(C3CC3)cn([C@@H]3CC[C@H]3O)c2=O)nc2ncc(Oc3cnn4ccncc34)c(Cl)c21 (single isomer, unassigned) [Example I-95-b]"
3,10 to 50,"Cn1c(Nc2cc(C(C)(C)C)n([C@@H]3CCOC3)n2)nc2ncc(Oc3cnn4ccnc4c3)c(Cl)c21 [Example I-14, (R)—N-(5-(tert-butyl)-1-(tetrahydrofuran-3-yl)-1H-pyrazol-3-yl)-7-chloro-6-(imidazo[1,2-b]pyridazin-7-yloxy)-1-methyl-1H-imidazo[4,5-b]pyridin-2-amine]"
4,< 10,"Cn1c(Nc2cc(C(F)(F)F)cn(C3CC4(COC4)C3)c2=O)nc2ncc(Oc3cnn4ccncc34)c(Cl)c21 [Example I-90, 3-((7-chloro-1-methyl-6-(pyrazolo[1,5-a]pyrazin-3-yloxy)-1H-imidazo[4,5-b]pyridin-2-yl)amino)-1-(2-oxaspiro[3.3]heptan-6-yl)-5-(trifluoromethyl)pyridin-2(1H)-one]"
5,< 10,"Cn1c(Nc2ccc(CN3CCC(O)C3)c(C(F)(F)F)c2)nc2ncc(Oc3cnn4ccncc34)c(Cl)c21 (stereo in doubt) [Example I-186, (R)-1-(4-((7-chloro-1-methyl-6-(pyrazolo[1,5-a]pyrazin-3-yloxy)-1H-imidazo[4,5-b]pyridin-2-yl)amino)-2-(trifluoromethyl)benzyl)pyrrolidin-3-ol]"
6,10 to 50,"COc1c(Oc2cnn3ccncc23)cnc2nc(Nc3cc(C(C)(C)C)n([C@@H]4CCC[C@@H]4O)n3)n(C)c12 (single isomer, unassigned) [Example I-69-b]"
7,< 10,"CNc1nccn2ncc(Oc3cnc4nc(Nc5cc(C6CCN(C)CC6)cc(C(F)(F)F)c5)n(C)c4c3Cl)c12 [Example I-254, 7-chloro-1-methyl-6-((4-(methylamino)pyrazolo[1,5-a]pyrazin-3-yl)oxy)-N-(3-(1-methylpiperidin-4-yl)-5-(trifluoromethyl)phenyl)-1H-imidazo[4,5-b]pyridin-2-amine]"
8,< 10,"Cn1c(Nc2cc3n(n2)CCCC3(F)F)nc2ncc(Oc3cnc4[nH]ncc4c3)c(C#N)c21 [Example I-370, 6-((1H-pyrazolo[3,4-b]pyridin-5-yl)oxy)-2-((4,4-difluoro-4,5,6,7-tetrahydropyrazolo[1,5-a]pyridin-2-yl)amino)-1-methyl-1H-imidazo[4,5-b]pyridine-7-carbonitrile]"
9,< 10,"Cn1c(Nc2cc(C3CC3)cn([C@H]3C[C@@H](O)C3)c2=O)nc2ncc(Oc3cnn4ccncc34)c(Cl)c21 [Example I-70, 3-((7-chloro-1-methyl-6-(pyrazolo[1,5-a]pyrazin-3-yloxy)-1H-imidazo[4,5-b]pyridin-2-yl)amino)-5-cyclopropyl-1-((1s,3s)-3-hydroxycyclobutyl)pyridin-2(1H)-one]"
10,< 10,"Cn1c(Nc2cc(C(F)(F)F)cn(CCO)c2=O)nc2ncc(Oc3cnn4ccccc34)c(Cl)c21 [Example I-103, 3-((7-chloro-1-methyl-6-(pyrazolo[1,5-a]pyridin-3-yloxy)-1H-imidazo[4,5-b]pyridin-2-yl)amino)-1-(2-hydroxyethyl)-5-(trifluoromethyl)pyridin-2(1H)-one]"
11,10 to 50,"Cn1c(Nc2cc(C(C)(C)C)n([C@@H]3CCC[C@@H]3O)n2)nc2ncc(Oc3cnn4ccncc34)c(C(F)F)c21 (single isomer, unassigned) [Example I-71-b]"
12,1000 to 5000,"Cn1c(Nc2cc(C(C)(C)C)n([C@H]3CCOC3)n2)nc2ncc(Oc3cnc4[nH]cc(C#N)c4c3)cc21 [Example I-10, (S)-5-((2-((5-(tert-butyl)-1-(tetrahydrofuran-3-yl)-1H-pyrazol-3-yl)amino)-1-methyl-1H-imidazo[4,5-b]pyridin-6-yl)oxy)-1H-pyrrolo[2,3-b]pyridine-3-carbonitrile]"
13,< 10,"Cn1c(Nc2cc3n(n2)CCCC3(C)C)nc2ncc(Oc3cnn4ccnc(OCCO)c34)c(Cl)c21 [Example I-124, 2-((3-((7-chloro-2-((4,4-dimethyl-4,5,6,7-tetrahydropyrazolo[1,5-a]pyridin-2-yl)amino)-1-methyl-1H-imidazo[4,5-b]pyridin-6-yl)oxy)pyrazolo[1,5-a]pyrazin-4-yl)oxy)ethan-1-ol]"
14,< 10,"Cn1c(Nc2cc(C(C)(C)C)n([C@@H]3CCOC3)n2)nc2ncc(Oc3cnn4ccncc34)c(Cl)c21 [Example I-21, (R)—N-(5-(tert-butyl)-1-(tetrahydrofuran-3-yl)-1H-pyrazol-3-yl)-7-chloro-1-methyl-6-(pyrazolo[1,5-a]pyrazin-3-yloxy)-1H-imidazo[4,5-b]pyridin-2-amine]"
15,< 10,COCc1c[nH]c2ncc(Oc3cnc4nc(Nc5cc(C(C)(C)C)n([C@@H]6CCOC6)n5)n(C)c4c3)cc12 [Example I-11]
16,10 to 50,"Cn1c(Nc2cc(C(C)(C)C)n([C@H]3CCC[C@H]3O)n2)nc2ncc(Oc3cnn4ccncc34)c(Cl)c21 (single isomer, unassigned) [Example I-60-a]"
17,10 to 50,"Cn1c(Nc2cc(C(C)(C)C)n([C@@H]3COC[C@H]3O)n2)nc2ncc(Oc3cnn4ccncc34)c(C#N)c21 (single isomer, unassigned) [Example I-150-b]"
18,10 to 50,"CNc1nccn2ncc(Oc3cnc4nc(Nc5ccc(CN6CC[C@H](OC)C6)c(C(F)(F)F)c5)n(C)c4c3Cl)c12 [Example I-191, (S)-7-chloro-N-(4-((3-methoxypyrrolidin-1-yl)methyl)-3-(trifluoromethyl)phenyl)-1-methyl-6-((4-(methylamino)pyrazolo[1,5-a]pyrazin-3-yl)oxy)-1H-imidazo[4,5-b]pyridin-2-amine]"
19,< 10,"COc1c(Oc2cnn3ccncc23)cnc2nc(Nc3cc(C4CC4)cn([C@H]4C[C@@H](O)C4)c3=O)n(C)c12 [Example I-74, cis-5-cyclopropyl-1-(3-hydroxycyclobutyl)-3-((7-methoxy-1-methyl-6-(pyrazolo[1,5-a]pyrazin-3-yloxy)-1H-imidazo[4,5-b]pyridin-2-yl)amino)pyridin-2(1H)-one]"
20,< 10,"CO[C@@H]1CCN(Cc2ccc(Nc3nc4ncc(Oc5cnn6ccncc56)c(Cl)c4n3C)cc2C(F)(F)F)C1 [Example I-176, (R)-7-chloro-N-(4-((3-methoxypyrrolidin-1-yl)methyl)-3-(trifluoromethyl)phenyl)-1-methyl-6-(pyrazolo[1,5-a]pyrazin-3-yloxy)-1H-imidazo[4,5-b]pyridin-2-amine]"
21,50 to 1000,"CNc1cn2ncc(Oc3cnc4nc(Nc5cc([C@@H]6CCCN6C)cc(C(F)(F)F)c5)n(C)c4c3Cl)c2cn1 (single isomer, unassigned) [Example I-359-b]"
22,< 10,"Cn1c(Nc2cc(C(C)(C)C)n([C@H]3CCOC3)n2)nc2ncc(Oc3cnn4ccncc34)c(Cl)c21 [Example I-22, (S)—N-(5-(tert-butyl)-1-(tetrahydrofuran-3-yl)-1H-pyrazol-3-yl)-7-chloro-1-methyl-6-(pyrazolo[1,5-a]pyrazin-3-yloxy)-1H-imidazo[4,5-b]pyridin-2-amine]"
23,10 to 50,"Cn1c(Nc2cc(C(C)(C)C)n([C@H]3CCOC3)n2)nc2ncc(Oc3cnc4[nH]c(C5CC5)cc4c3)cc21 [Example I-2, (S)—N-(5-(tert-butyl)-1-(tetrahydrofuran-3-yl)-1H-pyrazol-3-yl)-6-((2-cyclopropyl-1H-pyrrolo[2,3-b]pyridin-5-yl)oxy)-1-methyl-1H-imidazo[4,5-b]pyridin-2-amine]"
24,< 10,"Cn1cc(C2CC2)cc(Nc2nc3ncc(Oc4cnn5ccncc45)c(Cl)c3n2C)c1=O [Example I-57, 3-((7-chloro-1-methyl-6-(pyrazolo[1,5-a]pyrazin-3-yloxy)-1H-imidazo[4,5-b]pyridin-2-yl)amino)-5-cyclopropyl-1-methylpyridin-2(1H)-one]"
25,10 to 50,"CNc1nccn2ncc(Oc3cnc4nc(Nc5cc(O[C@@H]6CCN(C)C6)cc(C(F)(F)F)c5)n(C)c4c3Cl)c12 [Example I-229, (R)-7-chloro-1-methyl-6-((4-(methylamino)pyrazolo[1,5-a]pyrazin-3-yl)oxy)-N-(3-((1-methylpyrrolidin-3-yl)oxy)-5-(trifluoromethyl)phenyl)-1H-imidazo[4,5-b]pyridin-2-amine]"
26,< 10,"Cn1c(Nc2cc(CN3CC[C@@H](O)C3)cc(C(F)(F)F)c2)nc2ncc(Oc3cnn4ccncc34)c(Cl)c21 [Example I-204, (R)-1-(3-((7-chloro-1-methyl-6-(pyrazolo[1,5-a]pyrazin-3-yloxy)-1H-imidazo[4,5-b]pyridin-2-yl)amino)-5-(trifluoromethyl)benzyl)pyrrolidin-3-ol]"
27,50 to 1000,"Cn1c(Nc2cc(C(C)(C)C)n([C@@H]3CCN(CCF)C3)n2)nc2ncc(Oc3cnn4ccnc4c3)c(Cl)c21 [Example I-26, (R)—N-(5-(tert-butyl)-1-(1-(2-fluoroethyl)pyrrolidin-3-yl)-1H-pyrazol-3-yl)-7-chloro-6-(imidazo[1,2-b]pyridazin-7-yloxy)-1-methyl-1H-imidazo[4,5-b]pyridin-2-amine]"
28,10 to 50,"Cn1c(Nc2cc(C3CC3)nn([C@H]3CCCOC3)c2=O)nc2ncc(Oc3cnn4ccccc34)c(Cl)c21 (single isomer, unassigned) [Example I-148-b]"
29,< 10,"Cn1c(Nc2cc(C3CC3)nn([C@H]3CCOC3)c2=O)nc2ncc(Oc3cnn4ccccc34)c(Cl)c21 [Example I-143, (S)-4-((7-chloro-1-methyl-6-(pyrazolo[1,5-a]pyridin-3-yloxy)-1H-imidazo[4,5-b]pyridin-2-yl)amino)-6-cyclopropyl-2-(tetrahydrofuran-3-yl)pyridazin-3(2H)-one]"
30,< 10,"CN(C)C1CCN(Cc2cc(Nc3nc4ncc(Oc5cnn6ccncc56)c(Cl)c4n3C)cc(C(F)(F)F)c2)C1 (stereo in doubt) [Example I-272, (R)-7-chloro-N-(3-((3-(dimethylamino)pyrrolidin-1-yl)methyl)-5-(trifluoromethyl)phenyl)-1-methyl-6-(pyrazolo[1,5-a]pyrazin-3-yloxy)-1H-imidazo[4,5-b]pyridin-2-amine]"
